We go through seven compounds from US10081662B2, “Modified relaxin B chain peptides” (The Florey Institute of Neuroscience and Mental Health, priority 2014, dated 2018).

Square brackets hold non-standard residues; d marks the D form. Peptide text beside a SMILES is read from it. hArg = N=C(N)NCCCC[C@H](N)C(=O)O; Agb = N=C(N)NCC[C@H](N)C(=O)O Bounds are passed on as bounds.

The target in assay [1] is T1, RXFP1 (Homo sapiens, UniProt Q9HBX9).
T1 construct: expressed in transfected cells; host or cells: HEK-293T
T1 sequence (Q9HBX9 1-757): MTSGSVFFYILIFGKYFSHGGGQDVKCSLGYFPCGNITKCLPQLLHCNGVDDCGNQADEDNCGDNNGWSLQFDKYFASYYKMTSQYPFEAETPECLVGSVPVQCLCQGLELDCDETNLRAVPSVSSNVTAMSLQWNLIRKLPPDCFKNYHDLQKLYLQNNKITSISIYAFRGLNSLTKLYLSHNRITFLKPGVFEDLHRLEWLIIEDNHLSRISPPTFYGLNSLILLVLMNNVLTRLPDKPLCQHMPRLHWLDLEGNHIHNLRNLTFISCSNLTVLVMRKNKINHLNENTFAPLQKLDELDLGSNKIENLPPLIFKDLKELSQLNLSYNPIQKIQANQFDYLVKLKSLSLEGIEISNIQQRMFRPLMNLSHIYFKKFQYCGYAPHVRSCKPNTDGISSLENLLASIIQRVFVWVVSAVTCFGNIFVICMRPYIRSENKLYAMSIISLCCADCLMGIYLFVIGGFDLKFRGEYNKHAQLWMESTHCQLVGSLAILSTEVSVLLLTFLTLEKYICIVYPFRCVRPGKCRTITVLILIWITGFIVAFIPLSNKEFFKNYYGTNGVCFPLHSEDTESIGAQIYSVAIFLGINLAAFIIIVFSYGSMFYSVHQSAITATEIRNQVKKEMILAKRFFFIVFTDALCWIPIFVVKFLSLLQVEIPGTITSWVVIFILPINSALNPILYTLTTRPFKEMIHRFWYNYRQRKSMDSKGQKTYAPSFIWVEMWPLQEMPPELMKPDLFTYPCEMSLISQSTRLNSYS
Nature of the assay: cAMP reporter gene assay (pCRE β-galactosidase) in HEK-293T cells transfected with RXFP1. It is filed as cell-based. To be noted: HEK-293T cells co-transfected with RXFP1 and pCRE β-galactosidase reporter; n ≥ 3; read-out: RXFP1 cAMP pEC50 (converted). The protocol: The ability of the relaxin-2 B chain peptide derivatives generated in Example 1 to stimulate cAMP response was also evaluated, using a cAMP reporter gene assay as described previously (Scott et al., 2006, J Biol Chem. 281, 34942-34954). HEK-293T cells co-transfected with either RXFP1 or RXFP2, or 7BP cells, and a pCRE β-galactosidase reporter plasmid were plated in 96-well plates. After 24 hours, the co-transfected cells were incubated with increasing concentrations of peptides in parallel to 10 nM of H2 relaxin or INSL3 for RXFP1- or RXFP2-transfected cells respectively. The amount of cAMP-driven β-galactosidase expression in each well was assessed with a colorimetric assay measuring absorbance at 570 nm on a microplate spectrophotometer. Ligand-induced cAMP stimulation was expressed as a percentage of maximal response of H2 relaxin or INSL3 for RXFP1 and RXFP2 cells respectively. Each data point was measured in triplicate and each experiment conducted independently at least three separate times. Statistical differences in pEC50 values were analyzed using one-way ANOVA coupled to Newman Keul's multiple comparison test for multiple group comparisons in GraphPad Prism 6.

Assay [2] concerns the target T1, RXFP1. Nature of the assay: Eu-labelled H2 relaxin competition binding, whole HEK-293T cells stably transfected with RXFP1. To be noted: HEK-293T cells stably transfected with RXFP1; competition with Eu-labelled H2 relaxin; mean ± S.E; n ≥ 3; read-out: RXFP1 Eu-H2 pKi (converted). How it is done:
Human embryonic kidney (HEK-293T) cells stably transfected with RXFP1 were cultured in RPMI 1640 medium supplemented with 10% fetal calf serum, 100 μg/ml penicillin, 100 μg/ml streptomycin and 2 mM L-glutamine and plated into 96-well pre-coated with poly-L-lysine for whole cell binding assays. Competition binding experiments were conducted with Eu^3+-labelled H2 relaxin (as per Shabanpoor et al., 2012, Biochem Biophys Res Commun. 420, 253-256) in the absence or presence of increasing concentrations of unlabelled relaxin-2 B chain derivatives. Nonspecific binding was determined with an excess of unlabelled peptides (500 nM H2 relaxin). Fluorescent measurements were recorded at an excitation wavelength of 340 nm and emission of 614 nm on a Victor plate reader (Perkin-Elmer Inc.). […] Statistical differences in pIC50 values were analyzed using one-way analysis of variance coupled to Newman Keul's multiple comparison test for multiple group comparisons in GraphPad Prism 6.

For assay [3], the target named is T2, fusion protein comprising the extracellular domain of RXFP1 and the transmembrane domain of CD8 (7BP cells) (Homo sapiens, UniProt Q9HBX9).
T2 construct: the extracellular domain of RXFP1 and the transmembrane domain of CD8; expressed in transfected cells
T2 sequence (Q9HBX9 1-409 limits assumed): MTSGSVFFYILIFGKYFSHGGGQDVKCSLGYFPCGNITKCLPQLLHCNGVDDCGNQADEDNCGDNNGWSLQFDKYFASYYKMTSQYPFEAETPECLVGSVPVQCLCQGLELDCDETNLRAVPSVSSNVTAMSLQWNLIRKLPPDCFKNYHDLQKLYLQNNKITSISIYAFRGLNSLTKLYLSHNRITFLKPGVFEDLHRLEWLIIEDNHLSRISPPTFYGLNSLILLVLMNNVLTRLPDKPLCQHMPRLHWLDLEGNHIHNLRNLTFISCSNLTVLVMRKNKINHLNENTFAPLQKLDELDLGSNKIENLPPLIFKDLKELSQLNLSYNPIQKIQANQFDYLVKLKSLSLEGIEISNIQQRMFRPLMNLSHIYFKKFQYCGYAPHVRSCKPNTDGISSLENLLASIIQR
Nature of the assay: Eu-labelled H2 relaxin competition binding to 7BP cells. To be noted: 7BP cells; lower affinity than H2 relaxin; FIG. 2B.

On to `CC[C@H](C)[C@H](NC(=O)[C@H](C)NC(=O)[C@@H](NC(=O)[C@H](CCC(N)=O)NC(=O)[C@H](C)NC(=O)[C@H](CCNC(=N)N)NC(=O)[C@@H](NC(=O)[C@H](CC(C)C)NC(=O)[C@H](CCC(=O)O)NC(=O)[C@H](CCCNC(=N)N)NC(=O)CNC(=O)[C@H](CO)NC(=O)[C@H](CC(C)C)NC(=O)[C@H](CCCCN)NC(=O)[C@@H](NC(=O)[C@@H](N)C(C)C)[C@@H](C)CC)C(C)C)[C@@H](C)CC)C(=O)N[C@@H](CO)C(=O)NCC(=O)N[C@@H](CCSC)C(=O)N[C@@H](CO)C(=O)N[C@H](C(=O)N[C@@H](Cc1c[nH]c2ccccc12)C(=O)N[C@@H](CO)C(=O)N[C@@H](CCCCN)C(=O)N[C@@H](CCCNC(=N)N)C(=O)N[C@@H](CO)C(=O)N[C@@H](CC(C)C)C(N)=O)[C@@H](C)O` [B7-33 C11.23S R17NR] (H-VIKLSGRELV[Agb]AQIAISGMSTWSKRSL-NH2), for which, at RXFP1 [1], the EC50 is 1.55 µM. In addition, the Ki at RXFP1 [2] is > 10 µM. Consider “VIKLCGRELVRAQIAICGMSTWSKRSL-NH2 [Native B7-33]”, for which the “Binding to 7BP cells (in words)” value in assay [3] is listed as “strongly bind to 7BP cells”. Take `CC[C@H](C)[C@H](NC(=O)[C@H](C)NC(=O)[C@@H](NC(=O)[C@H](CCC(N)=O)NC(=O)[C@H](C)NC(=O)[C@H](CCCCN)NC(=O)[C@@H](NC(=O)[C@H](CC(C)C)NC(=O)[C@H](CCC(=O)O)NC(=O)[C@H](CCCNC(=N)N)NC(=O)CNC(=O)[C@H](CO)NC(=O)[C@H](CC(C)C)NC(=O)[C@H](CCCCN)NC(=O)[C@@H](NC(=O)[C@@H](N)C(C)C)[C@@H](C)CC)C(C)C)[C@@H](C)CC)C(=O)N[C@@H](CO)C(=O)NCC(=O)N[C@@H](CCSC)C(=O)N[C@@H](CO)C(=O)N[C@H](C(=O)N[C@@H](Cc1c[nH]c2ccccc12)C(=O)N[C@@H](CO)C(=O)N[C@@H](CCCCN)C(=O)N[C@@H](CCCNC(=N)N)C(=O)N[C@@H](CO)C(=O)N[C@@H](CC(C)C)C(N)=O)[C@@H](C)O` [B7-33 C11.23S R17K] (H-VIKLSGRELVKAQIAISGMSTWSKRSL-NH2; N-terminus assumed): the EC50 at RXFP1 [1] was > 10 µM. Further, the Ki at RXFP1 [2] is > 10 µM. As for `CC[C@H](C)[C@H](NC(=O)[C@H](C)NC(=O)[C@H](C)NC(=O)[C@H](CCC(N)=O)NC(=O)[C@H](C)NC(=O)[C@H](CCCNC(=N)N)NC(=O)[C@@H](NC(=O)[C@H](CC(C)C)NC(=O)[C@H](CCC(=O)O)NC(=O)[C@H](CCCNC(=N)N)NC(=O)CNC(=O)[C@H](CO)NC(=O)[C@H](CC(C)C)NC(=O)[C@H](CCCCN)NC(=O)[C@@H](NC(=O)[C@@H](NC(C)=O)C(C)C)[C@@H](C)CC)C(C)C)C(=O)N[C@@H](CO)C(=O)NCC(=O)N[C@@H](CCSC)C(=O)N[C@@H](CO)C(=O)N[C@H](C(=O)N[C@@H](Cc1c[nH]c2ccccc12)C(=O)N[C@@H](CO)C(=O)N[C@@H](CCCCN)C(=O)N[C@@H](CCCNC(=N)N)C(=O)N[C@@H](CO)C(=O)N[C@@H](CC(C)C)C(N)=O)[C@@H](C)O` [R20A (AcB7-33 C11.23S)] (Ac-VIKLSGRELVRAQAAISGMSTWSKRSL-NH2), the EC50 at RXFP1 [1] is > 10 µM. The Ki on RXFP1 [2] was > 10 µM. With `CC[C@H](C)[C@H](NC(=O)[C@H](C)NC(=O)[C@@H](NC(=O)[C@H](CCC(N)=O)NC(=O)[C@H](C)NC(=O)[C@H](CCCNC(=N)N)NC(=O)[C@@H](NC(=O)[C@H](CC(C)C)NC(=O)[C@H](CCC(=O)O)NC(=O)[C@H](CCCNC(=N)N)NC(=O)CNC(=O)[C@H](CO)NC(=O)[C@H](CC(C)C)NC(=O)[C@H](CCCCN)NC(=O)[C@@H](NC(=O)[C@@H](NC(=O)[C@H](CCC(=O)O)NC(=O)[C@H](CCC(=O)O)NC(=O)[C@H](CCSC)NC(=O)[C@H](Cc1c[nH]c2ccccc12)NC(=O)[C@H](CO)NC(=O)[C@@H](N)CC(=O)O)C(C)C)[C@@H](C)CC)C(C)C)[C@@H](C)CC)C(=O)N[C@@H](CO)C(=O)NCC(=O)N[C@@H](CCSC)C(=O)N[C@@H](CO)C(=O)N[C@H](C(=O)N[C@@H](Cc1c[nH]c2ccccc12)C(=O)N[C@@H](CO)C(=O)N[C@@H](CCCCN)C(=O)N[C@@H](CCCNC(=N)N)C(=O)N[C@@H](CO)C(=O)N[C@@H](CC(C)C)C(N)=O)[C@@H](C)O` [B1-33 C11.23S] (H-DSWMEEVIKLSGRELVRAQIAISGMSTWSKRSL-NH2), the EC50 at RXFP1 [1] is 7.94 µM. For the same compound, the Ki at RXFP1 [2] was 4.68 µM.

Turning to `CC[C@H](C)[C@H](NC(=O)[C@H](C)NC(=O)[C@@H](NC(=O)[C@H](CCC(N)=O)NC(=O)[C@H](C)NC(=O)[C@H](CCCCNC(=N)N)NC(=O)[C@@H](NC(=O)[C@H](CC(C)C)NC(=O)[C@H](CCC(=O)O)NC(=O)[C@H](CCCNC(=N)N)NC(=O)CNC(=O)[C@H](CO)NC(=O)[C@H](CC(C)C)NC(=O)[C@H](CCCCN)NC(=O)[C@@H](NC(=O)[C@@H](N)C(C)C)[C@@H](C)CC)C(C)C)[C@@H](C)CC)C(=O)N[C@@H](CO)C(=O)NCC(=O)N[C@@H](CCSC)C(=O)N[C@@H](CO)C(=O)N[C@H](C(=O)N[C@@H](Cc1c[nH]c2ccccc12)C(=O)N[C@@H](CO)C(=O)N[C@@H](CCCCN)C(=O)N[C@@H](CCCNC(=N)N)C(=O)N[C@@H](CO)C(=O)N[C@@H](CC(C)C)C(N)=O)[C@@H](C)O` [B7-33 C11.23S R17HR] (H-VIKLSGRELV[hArg]AQIAISGMSTWSKRSL-NH2), the EC50 on RXFP1 [1] was > 10 µM. Also, at RXFP1 [2], the Ki is 0.302 µM. As for `CC[C@H](C)[C@H](NC(=O)[C@H](C)NC(=O)[C@@H](NC(=O)[C@H](CCC(N)=O)NC(=O)[C@H](C)NC(=O)[C@H](CCCNC(=N)N)NC(=O)[C@@H](NC(=O)[C@H](CC(C)C)NC(=O)[C@H](CCC(=O)O)NC(=O)[C@H](CCCNC(=N)N)NC(=O)CNC(=O)[C@H](CO)NC(=O)[C@H](CC(C)C)NC(=O)[C@H](CCCCN)NC(=O)[C@@H](NC(=O)[C@@H](N)C(C)C)[C@@H](C)CC)C(C)C)[C@@H](C)CC)C(=O)N[C@@H](CO)C(=O)NCC(=O)N[C@@H](CCSC)C(=O)N[C@@H](CO)C(=O)N[C@H](C(=O)N[C@@H](Cc1c[nH]c2ccccc12)C(=O)N[C@@H](CO)C(N)=O)[C@@H](C)O` [B7-29 C11.23S] (H-VIKLSGRELVRAQIAISGMSTWS-NH2; N-terminus assumed), the EC50 on RXFP1 [1] was > 10 µM. Moreover, on RXFP1 [2], the Ki was > 10 µM.
